Patent US12485121B2, “Antiviral agents for the treatment and prevention of HIV infection” (Pharmasyntez, Joint Stock Company, priority 2020, dated 2025)
Like-named read-outs stand apart in the source and are kept apart here.

Test system: HIV-1 subtype A strain 12RU 69831
Experiment: Inhibition of HIV-1 reproduction / protection of infected MT-4 cells (living cell concentration, p24 production)
Assay type: cell-based
Conditions: read-out: Activity against HIV-1 12RU 69831 strain (subtype A)
Protocol: Evaluation of HIV reproduction inhibition/protection of human cells by anti-HIV products of the present invention was conducted by measuring change in living cells concentration in experimental wells with MT-4 cells infected with HIV-1, as well as by the production of viral protein p24 with adding different concentrations of compounds according to the present invention. Antiviral activity of products against HIV-1 subtype A strain 12RU 69831 was determined, when the cell culture was infected with a constant dose of virus, corresponding to 300 CCID50.

[1] = Human immunodeficiency virus 1, MT4, MT-4 cells infected with HIV-1 at a constant virus dose of 300 CCID50

Row | SMILES | IC50 [1] [µM] | IC50 (MT-4 cells infected with HIV-1 at a constant virus dose of 300 CCID50) [µM]
1 | Cc1cc(C#N)cc(C)c1Oc1nc(Nc2ccc(C#N)cc2)nc2c1CN(C(=O)CN1CC(O)C1)CC2 [BB0274052, 4-((2-((4-Cyanophenyl)amino)-6-(2-(3-hydroxyazetidine-1-yl)acetyl)-5,6,7,8-tetrahydropyrido[4,3-d]pyrimidine-4-yl)oxy)-3,5-dimethylbenzonitrile] | 0.127 | –
2 | Cc1cc(C#N)cc(C)c1Oc1nc(Nc2ccc(C#N)cc2)nc2c1CN(C(=O)[C@H](CCCCNC(=O)OC(C)(C)C)NC(=O)OC(C)(C)C)CC2 [BB0274130, (S)-Di-tert-butyl (6-(4-(4-cyano-2,6-dimethylphenoxy)-2-((4-cyanophenyl)amino)-7,8-dihydropyrido[4,3-d]pyrimidine-6(5H)-yl)-6-oxohexane-1,5-diyl)dicarbamate] | 240 | –
3 | Cc1cc(C=O)cc(C)c1Oc1nc(Nc2ccc(C#N)cc2)nc2c1CCN(C(=O)OC(C)(C)C)CC2 [BB0273943, Tert-butyl 2-((4-cyanophenyl)amino)-4-(4-formyl-2,6-dimethylphenyoxy)-8,9-dihydro-5H-pyrimido[4,5-d]azepine-7(6H)-carboxylate] | 346 | –
4 | CSCCC(NC(=O)OC(C)(C)C)C(=O)N1CCc2nc(Nc3ccc(C#N)cc3)nc(Oc3c(C)cc(C#N)cc3C)c2C1 (stereo not drawn) [BB0274120, Tert-butyl (1-(4-(4-cyano-2,6-dimethylphenoxy)-2-((4-cyanophenyl)amino)-7,8-dihydropyrido[4,3-d]pyrimidine-6(5H)-yl)-4-(methylthio)-1-oxobutane-2-yl)carbamate] | 108 | –
5 | Cc1cc(C#N)cc(C)c1Oc1nc(Nc2ccc(C#N)cc2)nc2c1CN(C(=O)[C@H](N)CO)CC2 [BB0274123, (R)-4-((6-(2-Amino-3-hydroxypropanoyl)-2-((4-cyanophenyl)amino)-5,6,7,8-tetrahydropyrido[4,3-d]pyrimidine-4-yl)oxy)-3,5-dimethylbenzonitrile] | 2.07 | –
6 | Cc1cc(C#N)cc(C)c1Oc1nc(Nc2ccc(C#N)cc2)nc2c1CCNCC2 [BB0273976, 4-((2-((4-Cyanophenyl)amino)-6,7,8,9-tetrahydro-5H-pyrimido[4,5-d]azepine-4-yl)oxy)-3,5-dimethylbenzonitrile] | – | 0.00583
7 | Cc1cc(C#N)cc(C)c1Oc1nc(Nc2ccc(C#N)cc2)nc2c1CN(C(=O)[C@@H](N)Cc1ccccc1)CC2 [BB0274111, (S)-4-((6-(2-Amino-3-phenylpropanoyl)-2-((4-cyanophenyl)amino)-5,6,7,8-tetrahydropyrido[4,3-d]pyrimidine-4-yl)oxy)-3,5-dimethylbenzonitrile] | 533 | –
8 | COC(=O)C(=O)N1CCc2nc(Nc3ccc(C#N)cc3)nc(Oc3c(C)cc(C=O)cc3C)c2CC1 [BB0274312, Methyl 2-{2-[(4-cyanophenyl)amino]-4-(4-formyl-2,6-dimethylphenoxy)-5H,6H,7H,8H,9H-pyrimido [4,5-d]azepine-7-yl}-2-oxoacetate] | 34.8 | –
9 | Cc1cc(C#N)cc(C)c1Oc1nc(Nc2ccc(C#N)cc2)nc2c1CCN(C(=O)C1CCN(C(=O)OC(C)(C)C)CC1)CC2 [BB0274025, Tert-butyl 4-(4-(4-cyano-2,6-dimethylphenoxy)-2-((4-cyanophenyl)amino)-6,7,8,9-tetrahydro-5H-pyrimido[4,5-d]asein-7-carbonyl)piperidine-1-carboxylate] | 3220 | –
10 | Cc1cc(/C=C/C(=O)O)cc(C)c1Oc1nc(Nc2ccc(C#N)cc2)nc2c1CCN(C(=O)OC(C)(C)C)CC2 [BB0273969, (E)-3-(4-((7-(Tert-butoxycarbonyl)-2-((4-cyanophenyl)amino)-6,7,8,9-tetrahydro-5H-pyrimido[4,5-d]azepine-4-yl)oxy)-3,5-dimethylphenyl)acrylic acid] | 10700 | –
11 | CSCC[C@H](N)C(=O)N1CCc2nc(Nc3ccc(C#N)cc3)nc(Oc3c(C)cc(C#N)cc3C)c2C1 [BB0274132, 4-((2-((4-cyanophenyl)amino)-6-methionyl-5,6,7,8-tetrahydropyrido[4,3-d]pyrimidin-4-yl)oxy)-3,5-dimethylbenzonitrile] | 0.909 | –
12 | Cc1cc(C#N)cc(C)c1Oc1nc(Nc2ccc(C#N)cc2)nc2c1CCN(C)C2 [BB0273774, 4-((2-((4-Cyanophenyl)amino)-7-methyl-5,6,7,8-tetrahydropyrido[3,4-d]pyrimidine-4-yl)oxy)-3,5-dimethylbenzonitrile] | 224 | –
13 | Cc1cc(C#N)cc(C)c1Oc1nc(Nc2ccc(C#N)cc2)nc2c1CCN(Cc1ccc(O)cc1)CC2 [BB0274075, 4-((2-((4-Cyanophenyl)amino)-7-(4-hydroxybenzyl)-6,7,8,9-tetrahydro-5H-pyrimido[4,5-d]azepine-4-yl)oxy)-3,5-dimethylbenzonitrile] | 5.8 | –
14 | Cc1cc(C#N)cc(C)c1Oc1nc(Nc2ccc(C#N)cc2)nc2c1CN(C(=O)[C@H](NC(=O)OC(C)(C)C)C(C)C)CC2 [BB0274126, (R)-Tert-butyl (1-(4-(4-cyano-2,6-dimethylphenoxy)-2-((4-cyanophenyl)amino)-7,8-dihydropyrido[4,3-d]pyrimidine-6(5H)-yl)-3-methyl-1-oxobutane-2-yl)carbamate] | 45.3 | –
15 | Cc1cc(C#N)cc(C)c1Oc1nc(Nc2ccc(C#N)cc2)nc2c1CN(Cc1ccncc1)CC2 [BB0274137, 4-((2-((4-Cyanophenyl)amino)-6-(pyridine-4-ylmethyl)-5,6,7,8-tetrahydropyrido[4,3-d]pyrimidine-4-yl)oxy)-3,5-dimethylbenzonitrile] | 0.00799 | –
16 | COC(=O)N1CCc2nc(Nc3ccc(C#N)cc3)nc(Oc3c(C)cc(C#N)cc3C)c2CC1 [BB0274134, Methyl 4-(4-cyano-2,6-dimethylphenoxy)-2-((4-4-cyanophenyl)amino)-8,9-dihydro-5H-pyrimido[4,5-d]azepine-7(6H)-carboxylate] | 0.0959 | –
17 | Cc1cc(C#N)cc(C)c1Oc1nc(Nc2ccc(C#N)cc2)nc2c1CCN(CCC(=O)O)CC2 [BB0274143, 3-(4-(4-Cyano-2,6-dimethylphenoxy)-2-((4-cyanophenyl)amino)-8,9-dihydro-5H-pyrimido[4,5-d]azepine-7(6H)-yl)propanoic acid] | 0.71 | –
18 | Cc1cc(C#N)cc(C)c1Oc1nc(Nc2ccc(C#N)cc2)nc2c1CN(C(=O)[C@H](CC(C)C)NC(=O)OC(C)(C)C)CC2 [BB0274128, (S)-Tert-butyl (1-(4-(4-cyano-2,6-dimethylphenoxy)-2-((4-cyanophenyl)amino)-7,8-dihydropyrido[4,3-d]pyrimidine-6(5H)-yl)-4-methyl-1-oxopentane-2-yl)carbamate] | 113 | –
19 | Cc1cc(C#N)cc(C)c1Oc1nc(Nc2ccc(C#N)cc2)nc2c1CCN(C(=O)[C@@H]1CCCN1C(=O)OC(C)(C)C)CC2 [BB0274065, (S)-Tert-butyl 2-(4-(4-cyano-2,6-dimethylphenoxy)-2-((cyanophenyl)amino)-6,7,8,9-tetrahydro-5H-pyrimido[4,5-d]azepine-7-carbonyl)pyrrolidine-1-carboxylate] | 41.1 | –
20 | Cc1cc(C#N)cc(C)c1Oc1nc(Nc2ccc(C#N)cc2)nc2c1CN(C(=O)[C@H](Cc1ccccc1)NC(=O)OC(C)(C)C)CC2 [BB0274103, (S)-Tert-butyl (1-(4-(4-cyano-2,6-dimethylphenoxy)-2-((4-cyanophenyl)amino)-7,8-dihydropyrido[4,3-d]pyrimidine-6(5H)-yl)-1-oxo-3-phenylpropane-2-yl)carbamate] | 228 | –
21 | Cc1cc(C#N)cc(C)c1OC1=NC(Nc2ccc(C#N)cc2)=NC2CCN(C(=O)NC3CCOCC3)CC12 (stereo not drawn) [BB0274337, 4-(4-Cyano-2,6-dimethylphenoxy)-2-[(4-cyanophenyl)amino]-N-(oxan-4-yl)-4aH,5H,6H,7H,8H,8aH-pyrido [4,3-d]pyrimidine-6-carboxamide] | 205 | –
22 | Cc1cc(C#N)cc(C)c1Oc1nc(Nc2ccc(C#N)cc2)nc2c1CCN(S(C)(=O)=O)CC2 [BB0274135, 4-((2-((4-Cyanophenyl)amino)-7-(methylsulfonyl)-6,7,8,9-tetrahydro-5H-pyrimido[4,5-d]azepine-4-yl)oxy)-3,5-dimethylbenzonitrile] | 6.13 | –
23 | C=CCN1CCc2nc(Nc3ccc(C#N)cc3)nc(Oc3c(C)cc(C#N)cc3C)c2CC1 [BB0274144, 4-((7-Allyl-2-((4-cyanophenyl)amino)-6,7,8,9-tetrahydro-5H-pyrimido[4,5-d]azepine-4-yl)oxy)-3,5-dimethylbenzonitrile] | 1.63 | –
24 | Cc1cc(C#N)cc(C)c1Oc1nc(Nc2ccc(C#N)cc2)nc2c1CN(C(=O)OC(C)(C)C)CC2 [BB0273961, Tert-butyl 4-(4-cyano-2,6-dimethylphenoxy)-2-((4-cyanophenyl)amino)-7,8-dihydropyrido[4,3-d]pyrimidine-6(5H)-carboxylate] | 42.3 | –
25 | Cc1cc(C#N)cc(C)c1Oc1nc(Nc2ccc(C#N)cc2)nc2c1CCN(C(=O)OC(C)(C)C)CC2 [BB0273972, Tert-butyl 4-(4-cyano-2,6-dimethylphenoxy)-2-((4-cyanophenyl)amino)-8,9-dihydro-5H-pyrimido[4,5-d]azepine-7(6H)-carboxylate] | 117 | –
26 | Cc1cc(C#N)cc(C)c1Oc1nc(Nc2ccc(C#N)cc2)nc2c1CCN(Cc1ccccn1)CC2 [BB0274014, 4-((2-((4-Cyanophenyl)amino)-7-(pyridine-2-ylmethyl)-6,7,8,9-tetrahydro-5H-pyrimido[4,5-d]azepine-4-yl)oxy)-3,5-dimethylbenzonitrile] | 5.98 | –
27 | Cc1cc(C#N)cc(C)c1Oc1nc(Nc2ccc(C#N)cc2)nc2c1CN(C(=O)[C@H](C)N)CC2 [BB0274102, (S)-4-((6-(2-Aminopropanoyl)-2-((4-cyanophenyl)amino)-5,6,7,8-tetrahydropyrido[4,3-d]pyrimidine-4-yl)oxy)-3,5-dimethylbenzonitrile] | 0.00341 | –
